The record followed here is US20260325533A1, “CDK INHIBITOR COMPOUNDS” (ALEKSIA THERAPEUTICS, INC., priority 2023, published 2026).

Holding throughout (format): biochemical
In assay [1] the target is CDK4/CCND3 (Homo sapiens, UniProt P11802). Nature of the assay: CDK4 homogeneous time-resolved fluorescence (HTRF) kinase assay. The following applies: CDK4/CCND. Summed up:
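Compounds were preincubated with 1.5 nM CDK4/CCND3 for 20 min at 23 °C in HEPES buffer (pH not given), then reacted 60 min with 1 mM ATP and 50 nM ULight-4E-BP1 (Thr37/46) peptide. EDTA stop, Eu-anti-phospho-4E-BP1 detection; 665/615 nm ratio; IC50 from 11-point half-log titrations from 10 μM.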
On the technique in general: In TR-FRET formats the signal depends on donor and acceptor labels being close together.

The target in assay [2] is CDK2/CCNE1 (Homo sapiens, UniProt P24941). Nature of the assay: CDK2 homogeneous time-resolved fluorescence (HTRF) kinase assay. The following applies: CDK2/CCNE. Summed up: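 CDK2/CCNE1 (3 nM) preincubated 20 min at 23 °C with compound, then reacted 60 min at 23 °C with 1 mM ATP and 50 nM ULight-4E-BP1 (Thr37/46) peptide. Stopped with EDTA, phospho-peptide detected by Eu-anti-phospho antibody (665 nm or 665/615 ratio). IC50 from 11-point half-log titrations typically starting at 10 μM.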

Assay [3] has as its target CDK6/CCND1 (Homo sapiens, UniProt Q00534). Nature of the assay: CDK6 homogeneous time-resolved fluorescence (HTRF) kinase assay. Particulars: CDK6/CCND. Summed up:
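1 nM enzyme, 1 mM ATP, 50 nM ULight-4E-BP1 (Thr37/46) peptide, 1% DMSO; 20 min compound preincubation, 60 min reaction, 23 °C. EDTA stop, 2 nM Eu-anti-phospho-4E-BP1 antibody 60 min. TR-FRET 665 nm (or 665/615 ratio); IC50 from 11-point half-log titration, top 10 μM.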

Assay [4] has as its target CDK1/CCNB1 (Homo sapiens, UniProt P06493). The assay can be described thus: CDK1 homogeneous time-resolved fluorescence (HTRF) kinase assay. The following applies: CDK1/CCNB. The method, boiled down: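 HTRF assay with 0.5 nM CDK1/CCNB1, 1 mM ATP, 50 nM ULight-eIF4E-BP1 (Thr37/46) peptide; compound preincubated 20 min, reaction 60 min at 23 °C, EDTA stop, Eu-anti-phospho antibody detection. 11-point half-log titration from 10 μM, 1% DMSO; IC50 from 665 nm or 665/615 signal.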

Setting [5] is: x = IC50 25-250 nM, read-out: CDK4/CCND IC50 (25-250 nM).
Where [6] appears, read: x = IC50 <25 nM, read-out: CDK2/CCNE IC50 (<25 nM).
Where [7] appears, read: x = IC50 >250 nM, read-out: CDK6/CCND IC50 (>250 nM column).
Where [8] appears, read: x = IC50 25-250 nM, read-out: CDK1/CCNB IC50 (25-250 nM).
[9] abbreviates: x = IC50 >250 nM, read-out: CDK4/CCND IC50 (>250 nM column).
[10] abbreviates: x = IC50 >250 nM, read-out: CDK1/CCNB IC50 (>250 nM column).
Where [11] appears, read: x = IC50 25-250 nM, read-out: CDK6/CCND IC50 (25-250 nM).
[12] abbreviates: x = IC50 25-250 nM, read-out: CDK2/CCNE IC50 (25-250 nM).

The structures appear in SMILES notation. Read-outs that look alike come from different tables or passages of the source.

Sequence of CDK4/CCND3 (P11802 whole entry): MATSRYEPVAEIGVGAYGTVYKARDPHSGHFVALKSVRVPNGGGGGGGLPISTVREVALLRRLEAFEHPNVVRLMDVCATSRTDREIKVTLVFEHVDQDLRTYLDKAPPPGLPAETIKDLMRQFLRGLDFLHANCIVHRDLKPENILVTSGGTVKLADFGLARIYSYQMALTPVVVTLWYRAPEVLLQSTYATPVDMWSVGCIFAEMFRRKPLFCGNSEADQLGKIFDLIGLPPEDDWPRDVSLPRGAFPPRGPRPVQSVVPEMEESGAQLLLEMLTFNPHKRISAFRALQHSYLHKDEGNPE
Sequence of CDK4/CCND3 (P30281 whole entry partner): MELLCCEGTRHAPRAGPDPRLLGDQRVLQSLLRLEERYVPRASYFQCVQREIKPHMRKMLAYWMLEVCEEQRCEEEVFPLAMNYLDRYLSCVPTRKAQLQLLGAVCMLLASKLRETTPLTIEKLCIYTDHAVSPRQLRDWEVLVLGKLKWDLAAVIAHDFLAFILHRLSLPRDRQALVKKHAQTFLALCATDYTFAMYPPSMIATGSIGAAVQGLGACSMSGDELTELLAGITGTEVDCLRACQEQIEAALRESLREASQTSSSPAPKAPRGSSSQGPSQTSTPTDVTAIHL
Sequence of CDK6/CCND1 (Q00534 whole entry): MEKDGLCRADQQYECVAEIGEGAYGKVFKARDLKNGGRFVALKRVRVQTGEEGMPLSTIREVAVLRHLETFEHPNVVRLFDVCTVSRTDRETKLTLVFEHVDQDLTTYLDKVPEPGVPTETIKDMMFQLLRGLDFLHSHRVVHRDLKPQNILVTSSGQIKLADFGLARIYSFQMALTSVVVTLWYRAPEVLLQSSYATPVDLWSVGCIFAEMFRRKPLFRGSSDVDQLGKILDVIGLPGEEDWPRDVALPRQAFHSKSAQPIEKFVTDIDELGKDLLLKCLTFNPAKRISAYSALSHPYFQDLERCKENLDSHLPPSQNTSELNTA
Sequence of CDK6/CCND1 (P24385 whole entry partner): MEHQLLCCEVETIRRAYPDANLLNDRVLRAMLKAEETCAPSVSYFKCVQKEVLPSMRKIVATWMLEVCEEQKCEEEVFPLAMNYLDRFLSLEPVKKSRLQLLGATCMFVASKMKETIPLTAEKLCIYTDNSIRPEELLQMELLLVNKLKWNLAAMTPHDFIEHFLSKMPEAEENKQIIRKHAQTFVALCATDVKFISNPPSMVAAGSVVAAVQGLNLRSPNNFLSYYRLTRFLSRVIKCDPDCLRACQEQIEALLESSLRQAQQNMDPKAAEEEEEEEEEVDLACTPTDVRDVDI
Sequence of CDK1/CCNB1 (P06493 whole entry): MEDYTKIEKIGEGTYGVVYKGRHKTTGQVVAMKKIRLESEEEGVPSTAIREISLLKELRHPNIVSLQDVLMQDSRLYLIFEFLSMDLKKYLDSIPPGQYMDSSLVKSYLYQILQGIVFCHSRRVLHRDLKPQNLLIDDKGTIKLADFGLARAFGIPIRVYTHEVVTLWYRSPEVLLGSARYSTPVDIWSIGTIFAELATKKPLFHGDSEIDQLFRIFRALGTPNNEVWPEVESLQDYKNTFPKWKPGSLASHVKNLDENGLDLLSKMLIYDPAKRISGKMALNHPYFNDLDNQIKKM
Sequence of CDK1/CCNB1 (P14635 whole entry partner): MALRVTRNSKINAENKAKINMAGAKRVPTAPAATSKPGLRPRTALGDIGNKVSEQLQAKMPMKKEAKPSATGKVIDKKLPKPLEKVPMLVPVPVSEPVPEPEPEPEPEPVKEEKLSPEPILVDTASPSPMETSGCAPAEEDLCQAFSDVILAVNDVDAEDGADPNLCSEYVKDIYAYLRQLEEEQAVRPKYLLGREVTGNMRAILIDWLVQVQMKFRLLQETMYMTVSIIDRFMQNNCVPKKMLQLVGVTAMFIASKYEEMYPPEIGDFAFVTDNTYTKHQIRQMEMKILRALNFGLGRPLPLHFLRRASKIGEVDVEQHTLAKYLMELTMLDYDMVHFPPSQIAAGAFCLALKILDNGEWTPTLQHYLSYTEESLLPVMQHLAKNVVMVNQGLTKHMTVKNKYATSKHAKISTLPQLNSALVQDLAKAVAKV

Regarding `N=S(=O)(c1ccc(Nc2cc3c(C#Cc4ccc5c(c4)NC(=O)C54CCC4)nccc3cn2)cc1)C1CC1` (single isomer, unassigned) [Ex 344, 6'-((7-((4-(cyclopropanesulfonimidoyl)phenyl)amino)-2,6-naphthyridin-1-yl)ethynyl)spiro[cyclobutane-1,3'-indolin]-2'-one], the IC50 is 25 to 250 nM in assay [1] (setting [5]), under 25 nM in assay [2] (setting [6]), over 250 nM in assay [3] (setting [7]) and 25 to 250 nM in assay [4] (setting [8]).

`COc1cc(S(=N)(=O)C(C)C)ccc1Nc1cc2c(C#Cc3ccc4c(c3)NC(=O)C43CCC3)nccc2cn1` (single isomer, unassigned) [Ex 345, 6'-((7-((2-methoxy-4-(propan-2-ylsulfonimidoyl)phenyl)amino)-2,6-naphthyridin-1-yl)ethynyl)spiro[cyclobutane-1,3'-indolin]-2'-one]: the IC50 in assay [1] (setting [9]) is over 250 nM; in assay [2] (setting [6]), under 25 nM; in assay [3] (setting [7]), over 250 nM; in assay [4] (setting [10]), over 250 nM.

As to `CC(C)S(=N)(=O)c1ccc(Nc2cc3c(C#Cc4cc5c(cc4N)C(C)(C)C(=O)N5)nccc3cn2)cc1` (single isomer, unassigned) [Ex 349, 5-amino-3,3-dimethyl-6-((7-((4-(propan-2-ylsulfonimidoyl)phenyl)amino)-2,6-naphthyridin-1-yl)ethynyl)indolin-2-one], the IC50 in assay [1] (setting [5]) is 25 to 250 nM; in assay [2] (setting [6]), under 25 nM; in assay [3] (setting [7]), over 250 nM; in assay [4] (setting [8]) it was 25 to 250 nM.

`N=S(=O)(c1ccc(Nc2cc3c(C#Cc4ccc5c(c4)NC(=O)C54CC4)nccc3cn2)cc1)C1CCC1` (single isomer, unassigned) [Ex 350, 6'-((7-((4-(cyclobutanesulfonimidoyl)phenyl)amino)-2,6-naphthyridin-1-yl)ethynyl)spiro[cyclopropane-1,3'-indolin]-2'-one]: the IC50 in assay [1] (x = IC50 <25 nM, read-out: CDK4/CCND IC50 (<25 nM)) is under 25 nM; in assay [2] (setting [6]), under 25 nM; in assay [3] (setting [11]), 25 to 250 nM; in assay [4] (setting [8]) it was 25 to 250 nM.

Turning to `CC(C)S(=N)(=O)c1ccc(Nc2cc3c(C#Cc4ccc5c(c4)NC(=O)C54CC4)nccc3cn2)cc1` (single isomer, unassigned) [Ex 354, 6'-((7-((4-(propan-2-ylsulfonimidoyl)phenyl)amino)-2,6-naphthyridin-1-yl)ethynyl)spiro[cyclopropane-1,3'-indolin]-2'-one], the IC50 in assay [1] (setting [5]) is 25 to 250 nM; in assay [2] (setting [6]) it was under 25 nM; in assay [3] (setting [11]) it was 25 to 250 nM; in assay [4] (setting [8]) it was 25 to 250 nM.

For `CS(=N)(=O)c1ccc(Nc2cc3c(C#Cc4ccc5c(c4)NC(=O)C54CC4)nccc3cn2)cc1` (single isomer, unassigned) [Ex 358, 6'-((7-((4-(S-methylsulfonimidoyl)phenyl)amino)-2,6-naphthyridin-1-yl)ethynyl)spiro[cyclopropane-1,3'-indolin]-2'-one], the IC50 in assay [1] (setting [5]) was 25 to 250 nM; in assay [2] (setting [6]) it was under 25 nM; in assay [3] (setting [7]), over 250 nM; in assay [4] (setting [8]) it was 25 to 250 nM.

`N=S(=O)(c1ccc(Nc2cc3c(C#Cc4ccc5c(c4)NC(=O)C54CCC4)nccc3cn2)cc1)C1CCC1` (single isomer, unassigned) [Ex 363, 6'-((7-((4-(cyclobutanesulfonimidoyl)phenyl)amino)-2,6-naphthyridin-1-yl)ethynyl)spiro[cyclobutane-1,3'-indolin]-2'-one]: the IC50 was 25 to 250 nM in assay [1] (setting [5]), under 25 nM in assay [2] (setting [6]), 25 to 250 nM in assay [3] (setting [11]) and 25 to 250 nM in assay [4] (setting [8]).

As to `CCS(=N)(=O)c1ccc(Nc2cc3c(C#Cc4ccc5c(c4)NC(=O)C54CCC4)nccc3cn2)cc1` (single isomer, unassigned) [Ex 366, 6'-((7-((4-(ethylsulfonimidoyl)phenyl)amino)-2,6-naphthyridin-1-yl)ethynyl)spiro[cyclobutane-1,3'-indolin]-2'-one], the IC50 is 25 to 250 nM in assay [1] (setting [5]), under 25 nM in assay [2] (setting [6]), 25 to 250 nM in assay [3] (setting [11]) and 25 to 250 nM in assay [4] (setting [8]).

As to `CS(=N)(=O)c1ccc(Nc2cc3c(C#Cc4ccc5c(c4)NC(=O)C54CCC4)nccc3cn2)cc1` (single isomer, unassigned) [Ex 368, 6'-((7-((4-(S-methylsulfonimidoyl)phenyl)amino)-2,6-naphthyridin-1-yl)ethynyl)spiro[cyclobutane-1,3'-indolin]-2'-one], the IC50 in assay [1] (setting [5]) is 25 to 250 nM; in assay [2] (setting [6]) it was under 25 nM; in assay [3] (setting [7]) it was over 250 nM; in assay [4] (setting [8]) it was 25 to 250 nM.

Regarding `CC(C)S(=N)(=O)c1ccc(Nc2cc3c(C#Cc4ccc5c(c4)NC(=O)C54CCC4)nccc3cn2)cc1` (single isomer, unassigned) [Ex 383, 6'-((7-((4-(propan-2-ylsulfonimidoyl)phenyl)amino)-2,6-naphthyridin-1-yl)ethynyl)spiro[cyclobutane-1,3'-indolin]-2'-one], the IC50 in assay [1] (setting [5]) was 25 to 250 nM; in assay [2] (setting [6]) it was under 25 nM; in assay [3] (setting [11]), 25 to 250 nM; in assay [4] (setting [8]) it was 25 to 250 nM.

For the compound `CC(C)S(=N)(=O)c1ccc(Nc2cc3c(C#Cc4cccnc4N)nccc3cn2)cc1` (single isomer, unassigned) [Ex 402, (4-((5-((2-aminopyridin-3-yl)ethynyl)-2,6-naphthyridin-3-yl)amino)phenyl)(imino)(isopropyl)-l6-sulfanone], the IC50 in assay [1] (setting [9]) was over 250 nM; in assay [2] (setting [12]), 25 to 250 nM; in assay [3] (setting [7]), over 250 nM; in assay [4] (setting [10]), over 250 nM.

Regarding `CCC1(CC)C(=O)Nc2cc(C#Cc3nccc4cnc(Nc5ccc(S(=N)(=O)C6CC6)cc5)cc34)ccc21` (single isomer, unassigned) [Ex 410, 6-((7-((4-(cyclopropanesulfonimidoyl)phenyl)amino)-2,6-naphthyridin-1-yl)ethynyl)-3,3-diethylindolin-2-one], the IC50 in assay [1] (setting [5]) is 25 to 250 nM; in assay [2] (setting [6]), under 25 nM; in assay [3] (setting [7]), over 250 nM; in assay [4] (setting [8]), 25 to 250 nM.

With `CCC1(CC)C(=O)Nc2cc(C#Cc3nccc4cnc(Nc5ccc(S(=N)(=O)CC)cc5)cc34)ccc21` (single isomer, unassigned) [Ex 411, 3,3-diethyl-6-((7-((4-(ethylsulfonimidoyl)phenyl)amino)-2,6-naphthyridin-1-yl)ethynyl)indolin-2-one], the IC50 in assay [1] (setting [9]) was over 250 nM; in assay [2] (setting [6]), under 25 nM; in assay [3] (setting [7]), over 250 nM; in assay [4] (setting [8]), 25 to 250 nM.

On to `CCC1(CC)C(=O)Nc2cc(C#Cc3nccc4cnc(Nc5ccc(S(=N)(=O)C6CCC6)cc5)cc34)ccc21` (single isomer, unassigned) [Ex 412, 6-((7-((4-(cyclobutanesulfonimidoyl)phenyl)amino)-2,6-naphthyridin-1-yl)ethynyl)-3,3-diethylindolin-2-one], for which the IC50 is 25 to 250 nM in assay [1] (setting [5]), under 25 nM in assay [2] (setting [6]), over 250 nM in assay [3] (setting [7]) and over 250 nM in assay [4] (setting [10]).

Take `CCC1(CC)C(=O)Nc2cc(C#Cc3nccc4cnc(Nc5ccc(S(=N)(=O)C(C)C)cc5)cc34)ccc21` (single isomer, unassigned) [Ex 414, 3,3-diethyl-6-((7-((4-(propan-2-ylsulfonimidoyl)phenyl)amino)-2,6-naphthyridin-1-yl)ethynyl)indolin-2-one]: the IC50 in assay [1] (setting [9]) is over 250 nM; in assay [2] (setting [6]) it was under 25 nM; in assay [3] (setting [7]) it was over 250 nM; in assay [4] (setting [10]), over 250 nM.

Regarding `N=S(=O)(c1ccc(Nc2cc3c(C#Cc4cccnc4N)nccc3cn2)cc1)C1CC1` (single isomer, unassigned) [Ex 417, (4-((5-((2-aminopyridin-3-yl)ethynyl)-2,6-naphthyridin-3-yl)amino)phenyl)(cyclopropyl)(imino)-l6-sulfanone], the IC50 in assay [1] (setting [9]) was over 250 nM; in assay [2] (setting [12]), 25 to 250 nM; in assay [3] (setting [7]), over 250 nM; in assay [4] (setting [10]), over 250 nM.

For `CCC1(CC)C(=O)Nc2cc(C#Cc3nccc4cnc(Nc5ccc(S(C)(=N)=O)cc5)cc34)ccc21` (single isomer, unassigned) [Ex 426, 3,3-diethyl-6-((7-((4-(S-methylsulfonimidoyl)phenyl)amino)-2,6-naphthyridin-1-yl)ethynyl)indolin-2-one], the IC50 in assay [1] (setting [9]) was over 250 nM; in assay [2] (setting [6]), under 25 nM; in assay [3] (setting [7]) it was over 250 nM; in assay [4] (setting [8]), 25 to 250 nM.
